Laboratory results from PMC10525438 (2023).

How the values were obtained:
[1] = tested on: h18-U (RNA, rRNA) CUCCGUGCCAGCAGCCGCGGUAAUACGGAG; assay: CD titration at 265 nm; details: 15 mM KCl, 4 mM MgCl2; 20 mM potassium cacodylate pH 7.0, 30 °C; 5 µM RNA (Methods print a different CD buffer, pH 7.6)
[2] = tested on: h18-Ψ (RNA, rRNA, pseudouridine at 516 (E. coli numbering; residue 6 of the 30-nt model)) CUCCGUGCCAGCAGCCGCGGUAAUACGGAG; assay: CD titration at 265 nm; details: 15 mM KCl, 4 mM MgCl2; 20 mM potassium cacodylate pH 7.0, 30 °C; 5 µM RNA (Methods print a different CD buffer, pH 7.6)

In the case of `CN[C@@H]1[C@H](O[C@H]2[C@H](O[C@H]3[C@H](O)[C@@H](O)[C@H](N=C(N)N)[C@@H](O)[C@@H]3N=C(N)N)O[C@@H](C)[C@]2(O)C=O)O[C@@H](CO)[C@H](O)[C@H]1O`, the Kd [1] is reported as 63 ± 1 µM and the Kd [2] is reported as 23 ± 3 µM.
